Data set [1] relates to SKBr3 cells. The data set is described as follows: Confocal microscopy binding of Cy5.5-labeled heterodimer linker configurations to SKBr3 cells. The format is cell-based, human. The settings on record: linkers E2, Hex, E3, E6, E10. The source says:
The two monomers were combined in a heterodimer configuration using a variable linker designed with either a PEG spacer that ranged in size from 17-74 atoms or a hydrophobic 6-aminohexonic acid linker in the α-, ξ-amino groups of the second lysine. The linker length was varied to determine the optimal spacing between monomers to maximize binding to the intended targets. Using confocal microscopy, binding for each Cy5.5-labeled heterodimer configuration to human breast cancer cells SKBr3 that overexpress both EGFR and ErbB2 was evaluated, FIG. 1B.
Hydrophilicity was good as well. Western blot analysis was used to show relative EGFR and ErbB2 expression levels, FIG. 1D. Western blot was performed by lysing cells in Pierce® RIPA lysis buffer containing Halt™ protease inhibitor cocktail (#87786, Thermo Scientific) for 30 min on ice. The lysates were centrifuged at 10,000 rpm for 10 min at 4° C. A BSA protein assay kit (#23227, Thermo Scientific) was used to quantify protein concentration in the supernatant. Aliquots of protein (10 μL) were used for electrophoresis on NuPAGE™ 4-12% Bis-Tris gels (#17031471, Invitrogen) followed by electrophoretic transfer onto membranes (#ISEQ00010, Merck Millipore Ltd). […]

Data set [2] deals with Barrett's neoplasia (HGD and EAC). The experiment in a line: Confocal microscopy of human esophageal specimens ex vivo. The protocol: The fluorescence intensities from the human esophageal specimens were fit according to 4 histological classifications, including squamous (SQ), Barrett's esophagus (BE), high-grade dysplasia (HGD), and esophageal adenocarcinoma (EAC), and used a one-way ANOVA and used Tukey's multiple comparisons. Co-localization of peptide and antibody binding was evaluated using Pearson's correlation coefficient.
Using confocal microscopy, specific heterodimer binding to Barrett's neoplasia was validated on human specimens ex vivo. Formalin-fixed, paraffin-embedded (FFPE) specimens of human esophagus were obtained from the archived tissue bank in the Department of Pathology, University of Michigan. The tissues were cut into […], deparaffinized, and rehydrated using standard conditions. Two-step acidic and protease-based antigen retrieval was performed. The sections were blocked with protein serum for 10 min at RT followed by rinsing with PBS, and then incubated with the heterodimer (0.5 μM) for ten min in dark conditions at RT. The sections were then washed for three min 3× with PBS and further incubated sequentially with 1:200 dilution of EGFR monoclonal antibody (H11, #MA5-13070, Invitrogen) and 1:500 goat anti-mouse IgG (H+L) AF-568-labeled secondary antibody (#A-11004, Thermo Fisher Scientific), 1:500 dilution of ErbB2 primary antibody (#29D8, rabbit monoclonal antibody #2165S, Cell Signaling Inc), and 1:1000 goat anti-rabbit IgG (H+L) AF-488-labeled secondary antibody (#A11008, Life Technologies Corp). Each antibody was incubated for 1 hour at RT. Sections were washed with TBST 3× and mounted with Prolong Gold reagent containing DAPI (Invitrogen) using #1 cover glass ([…]). Confocal fluorescence microscopy was performed using DAPI, AF488, AF568 and Cy5.5 filter sets. Image quantification was performed by placing 3 boxes with dimensions of 20×20 μm^2 completely within cells found in the epithelium. Mean fluorescence intensities were measured using custom Matlab software (Mathworks). Regions of saturated intensities were avoided.

The subject of data set [3] is OE33 human esophageal adenocarcinoma cells. The data set is described as follows: Confocal microscopy binding of heterodimer versus monomers to OE33 cells. It is filed as cell-based.
Data set [4] is described as follows: Hydrophilicity of heterodimer. It is filed as physicochemical.
Data set [5] concerns EGFR and ErbB2 mediated signaling. The data set is described as follows: Effect on downstream cell signaling in SKBr3 cells (Western blot). It is filed as cell-based, human. The conditions noted are these: heterodimer at 1, 5, and 20 μM. The protocol: The effect of heterodimer binding on downstream signaling was evaluated in SKBr3 cells. SKBr3 cells were seeded in 6-well flat-bottom plates. […] EGF (#E9644, Sigma) was reconstituted to 1 mg/mL using 10 mM acetic acid, diluted with 0.1% BSA, and added to SKBr3 cells at a concentration of 100 ng/mL. Lapatinib (CDS022971, Sigma) was diluted to 100 nM in DMSO and PBS from 1 mg/mL stock solution, and was added to the cells incubated with heterodimer at concentrations of 1, 5, and 20 μM in separate wells.

For data set [6], the system named is EGFR or ErbB2 in SKBr3 cells. The data set is described as follows: siRNA knockdown of EGFR or ErbB2 in SKBr3 cells, confocal binding. It is filed as cell-based, human. As to the method: siRNA knockdown experiments were performed to further validate specific heterodimer binding to either EGFR or ErbB2 in vitro. Separate siRNA knockdown of either EGFR or ErbB2 expression in SkBr3 cells was carried out to validate specific peptide binding. ON-TARGET plus human EGFR siRNA (#L-003114-00-0005), ONTARGET plus human ErbB2 siRNA (#L-003126-00-0005) and ON-TARGET plus non-targeting pool (#D-001810-10-05) were used.
siRNA at 5 μM concentration in 5 μL was transfected into SKBr3 cells using DharmaFECT transfection reagents (Thermo Scientific). Briefly, cells were seeded in 6-well culture plates at 30% confluence in McCoy's 5 Å media supplemented with 10% FBS without antibiotics. The cells were transfected with siRNA at a final concentration of […] using oligofectamine (Thermo Scientific). Knockdown of either EGFR or ErbB2 was confirmed by Western blot.

“Also recorded” adds a separate entry of the source.

Results on one substance are retold here after patent US20250263439A1, “HETERODIMERIC PEPTIDE REAGENTS AND METHODS” (REGENTS OF THE UNIVERSITY OF MICHIGAN, priority 2018, published 2025).

Regarding “heterodimer of QRHKPRE (SEQ ID NO: 1) and KSPNPRF (SEQ ID NO: 2) with E3 (triethyleneglycol) linker, Cy5.5 label [QRH*-KSP*-E3-Cy5.5]”, in data set [1], the “mean signal among heterodimer linker configurations” value is “largest signal”. Also, in data set [2] (human specimens ex vivo), the “staining of high-grade dysplasia (HGD) and esophageal adenocarcinoma (EAC)” value is given as “increased signal; also recorded: increased staining intensity”; the “staining of squamous (SQ) and Barrett's esophagus (BE)” value is given as “Minimal fluorescence signal; also recorded: minimal staining”. Moreover, in data set [2] (n=31, 8, 23, and 12 specimens of SQ, BE, HGD, EAC), the “mean fluorescence intensity of neoplasia compared with BE and SQ” value is “significantly greater mean fluorescence intensity”. For the same substance, in data set [3], the “greater fluorescence intensity compared with either monomer alone” value is given as 3 fold. The Hydrophilicity entry in data set [4] is listed as “good”. In data set [5], the “phosphorylation of EGFR (p-EGFR) and ErbB2 (p-ErbB2)” value is given as “no change”; the “phosphorylation of downstream AKT (p-AKT) and ERK (p-ERK)” value was “no downstream change”. Moreover, the “binding to siCL (control) versus siEGFR (knockdown) SKBr3 cells” value in data set [6] (confocal microscopy, similar results for siErbB2) is on record as “Less signal; also recorded: significantly greater binding”. Moreover, the “binding to surface of siCL (control) SKBr3 cells” value in data set [6] (non-targeting siRNA) is “strong binding”. In addition, the “mean fluorescence intensity in EGFR or ErbB2 knockdown cells” value in data set [6] (quantified, versus control SKBr3 cells) is reported as “significant reduction”.
